Tests used:
[1] = three days following an injection; cited from earlier work
[2] = In vivo elution: TA by HPLC in eye tissues, aqueous and blood after subretinal PCL/TA 60:40 implant; conditions: four weeks after subretinal PCL/TA 60:40 implant, rabbit
rabbit eye = conditions: in vivo
Experimental: Pupils were fully dilated before implantation with 1 drop each of cyclopentolate hydrochloride 1% (Bausch & Lomb, Rochester, N.Y.) and phenylephrine hydrochloride 5% (Bausch & Lomb). […] A periocular surgical prep was performed by swabbing the area using a 1:10 dilution of povidone iodine in saline. The surface of the eye was prepped with a 1:20 dilution of povidone iodine in saline. The rabbit was positioned under the operating microscope and draped. A wire lid speculum was placed.
A two-port core vitrectomy was performed, with illumination provided by the operating microscope (Carl Zeiss Ophthalmic Systems, Inc.). […] The feathered shape and semi-rigid structure of the implant allowed easy insertion. […] At the conclusion of surgery, a subconjunctival injection of antibiotic, 0.1 cc of 40 mg/ml gentamycin (Phoenix Scientific, St. Joseph, Mo.) and 0.1 cc of 2 mg/ml dexamethasone (Phoenix Scientific) was administered away from the surgery site. […]
Complete ophthalmic examinations using indirect ophthalmoscopy and a 20-diopter lens (Vantage Indirect Ophthalmoscope, Keeler Ltd., Windsor, England) were performed at baseline and 1, 2, and 4 weeks postoperatively. […] The lens was inspected for cataract formation and further evaluated with respect to any lens touch that may have occurred during the implantation.

Which “share of the triamcinolone present in the vitreous associated with other tissues including the retina, pigment epithelium, and sclera” value [1] does the source give for C[C@]12C=CC(=O)C=C1CC[C@H]1[C@@H]3C[C@@H](O)[C@](O)(C(=O)CO)[C@@]3(C)C[C@H](O)[C@@]12F [triamcinolone] here?
Its value is “less than 1%”.

What does the source list for CC1(C)O[C@@H]2C[C@H]3[C@@H]4CCC5=CC(=O)C=C[C@]5(C)[C@@]4(F)[C@@H](O)C[C@]3(C)[C@]2(C(=O)CO)O1 [TA, Triamcinolone acetonide]?
TA in the anterior structures (HPLC) [2]: not detected; TA in the blood (HPLC) [2]: not detected; TA in the posterior tissue samples (HPLC) ([2]; qualitative, FIG. 9): confirmed the presence

With CO[C@H]1C[C@@H]2CC[C@@H](C)[C@@](O)(O2)C(=O)C(=O)N2CCCC[C@H]2C(=O)O[C@H]([C@H](C)C[C@@H]2CC[C@@H](O)[C@H](OC)C2)CC(=O)[C@H](C)/C=C(\C)[C@@H](O)[C@@H](OC)C(=O)[C@H](C)C[C@H](C)/C=C/C=C/C=C/1C [rapamycin] as the compound, how does the “biocompatibility / toxicity, clinical examinations” value (rabbit eye) read?
Its value is “may be toxic to the rabbit eye at the current doses”.

Source: patent US8003124B2, “Sustained release implants and methods for subretinal delivery of bioactive agents to treat or prevent retinal disease” (Surmodics, Inc., priority 2005, dated 2011)
